Test results published in US20020019527A1 (priority 2000, published 2002).
Structures can show the parent of a compound that is named as a salt.

target: T1, Farnesyltransferase (FTase) (Bos taurus, UniProt P29702+P49355); assay: Farnesyltransferase inhibition (scintillation proximity assay, [3H]-FPP / biotin-K-ras peptide); type: biochemical, bovine; details: not given
T1 construct: precipitation from a beef brain homogenate; from tissue; host or cells: bovine brain
Summary of the method: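 Read-out: [3H]-FPP prenylation of a biotinylated K-ras peptide by SPA, measured 1 h after quenching. Enzyme: FTase purified from bovine brain (ammonium sulfate cut, DEAE Sepharose), free of GGTase I and II. Test compounds in ethanol, diluted 10-fold into the reaction.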

T1 sequence (P49355 whole entry, one chain of several): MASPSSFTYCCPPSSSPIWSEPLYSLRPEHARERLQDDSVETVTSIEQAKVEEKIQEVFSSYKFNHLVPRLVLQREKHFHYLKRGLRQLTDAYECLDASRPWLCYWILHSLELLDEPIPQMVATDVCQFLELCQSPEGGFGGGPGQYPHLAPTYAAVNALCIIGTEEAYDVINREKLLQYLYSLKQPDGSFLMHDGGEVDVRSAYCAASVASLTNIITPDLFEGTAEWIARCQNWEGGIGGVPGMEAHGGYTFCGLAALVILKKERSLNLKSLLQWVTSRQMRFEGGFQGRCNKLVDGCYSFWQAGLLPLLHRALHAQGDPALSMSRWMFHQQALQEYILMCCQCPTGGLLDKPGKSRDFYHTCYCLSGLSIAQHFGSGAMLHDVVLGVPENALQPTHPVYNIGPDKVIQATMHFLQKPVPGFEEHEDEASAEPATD

| Structure (SMILES) | % Inhibition at 10^−6M [%] |
| --- | --- |
| Cc1ccccc1-c1cc(C(OCc2ccccc2[N+](=O)[O-])c2cncn2C)ccc1C#N.Cl (stereo not drawn) [Example 142] | 94 |
| Cc1ccccc1-c1cc(C(NCc2ccc([N+](=O)[O-])cc2)c2cncn2C)ccc1C#N (stereo not drawn) [Example 12] | 100 |
| Cc1ccccc1-c1cc(C(OCc2ccc(S(C)(=O)=O)cc2)c2cncn2C)ccc1C#N.Cl (stereo not drawn) [Example 151] | 94 |
| Cc1ccccc1-c1cc(C(OCc2cc([N+](=O)[O-])cc3c2OCOC3)c2cncn2C)ccc1C#N.Cl (stereo not drawn) [Example 168] | 96 |

same assay, conditions: compound at 10^−6 M; bovine FTase, 37° C., 30 minutes

| inhibition at 1 µM [%] | Structure (SMILES) |
| --- | --- |
| 100 | CCN(Cc1ccc(C#N)cc1)C(c1ccc(C#N)c(-c2ccccc2C)c1)c1cncn1C (stereo not drawn) [Example 28, 5-(((4-cyanobenzyl)(ethyl)amino)(1-methyl-1H-imidazol-5-yl)methyl)-2′-methyl(1,1′-biphenyl)-2-carbonitrile dihydrochloride] |
| 96 | Cc1ccccc1-c1cc(C(O)(CCc2ccccc2)c2cncn2C)ccc1C#N (stereo not drawn) [Example 110, 5-(1-hydroxy-1-(1-methyl-1H-imidazol-5-yl)-3-phenylpropyl)-2′-methyl(1,1′-biphenyl)-2-carbonitrile] |
| 100 | Cn1cncc1C(OCc1ccc(C#N)c(Cl)c1)c1ccc(C#N)c(-c2cccc3ccccc23)c1 (stereo not drawn) [Example 61, 4-(((3-chloro-4-cyanobenzyl)oxy)(1-methyl-1H-imidazol-5-yl)methyl)-2-(1-naphthyl)benzonitrile hydrochloride] |
| 100 | Cn1cncc1C(OCc1ccc(C#N)c(F)c1)c1ccc(C#N)c(-c2cccc3ccccc23)c1 (stereo not drawn) [Example 77, 4-(((4-cyano-3-fluorobenzyl)oxy)(1-methyl-1H-imidazol-5-yl)methyl)-2-(1-naphthyl)benzonitrile hydrochloride] |
| 41 | Cc1ccccc1-c1cc(C(OCc2ccccc2)c2cncs2)ccc1C#N (stereo not drawn) [Example 213, 5-((benzyloxy)(1,3-thiazol-5-yl)methyl)-2′-methyl(1,1′-biphenyl)-2-carbonitrile hydrochloride] |
| 100 | Cn1cncc1C(NCc1ccc(C(N)=O)cc1)c1ccc(C#N)c(-c2cccc3ccccc23)c1 (stereo not drawn) [Example 58, 4-((((4-cyano-3-(1-naphthyl)phenyl)(1-methyl-1H-imidazol-5-yl)methyl)amino)methyl)benzamide dihydrochloride] |
| 90 | Cn1cncc1C(OCc1ccc(C(N)=O)cn1)c1ccc(C#N)c(-c2cccc3cccnc23)c1 (stereo not drawn) [Example 244, 6-(((4-cyano-3-(8-quinolinyl)phenyl)(1-methyl-1H-imidazol-5-yl)methoxy)methyl)nicotinamide trihydrochloride] |
| 100 | Cn1cncc1C(OCc1cccc(C(F)(F)F)c1)c1ccc(C#N)c(-c2cccc3ccccc23)c1 (stereo not drawn) [Example 68, 4-((1-methyl-1H-imidazol-5-yl)((3-(trifluoromethyl)benzyl)oxy)methyl)-2-(1-naphthyl)benzonitrile hydrochloride] |
| 90 | Cc1ccccc1-c1cc(C(OCc2cccc(Cl)c2)c2cncn2C)ccc1C#N (stereo not drawn) [Example 120, 5-(((3-chlorobenzyl)oxy)(1-methyl-1H-imidazol-5-yl)methyl)-2′-methyl(1,1′-biphenyl)-2-carbonitrile hydrochloride] |
| 10 | Cc1ccccc1-c1cc(CNc2cccnc2)ccc1C#N [Example 212, 2′-methyl-5-((3-pyridinylamino)methyl)(1,1′-biphenyl)-2-carbonitrile] |
| 94 | Cc1cc(C)cc(COC(c2ccc(C#N)c(-c3ccccc3C)c2)c2cncn2C)c1 (stereo not drawn) [Example 140, 5-(((3,5-dimethylbenzyl)oxy)(1-methyl-1H-imidazol-5-yl)methyl)-2′-methyl(1,1′-biphenyl)-2-carbonitrile hydrochloride] |
| 100 | Cc1ccccc1-c1cc(C(O)(C#Cc2ccccc2)c2cncn2C)ccc1C#N (stereo not drawn) [Example 109, 5-(1-hydroxy-1-(1-methyl-1H-imidazol-5-yl)-3-phenyl-2-propynyl)-2′-methyl(1,1′-biphenyl)-2-carbonitrile] |
| 100 | Cn1cncc1C(OCc1ccc(Cl)cc1Cl)c1ccc(C#N)c(-c2cccc3ccccc23)c1 (stereo not drawn) [Example 72, 4-(((2,4-dichlorobenzyl)oxy)(1-methyl-1H-imidazol-5-yl)methyl)-2-(1-naphthyl)benzonitrile hydrochloride] |
| 75 | Cc1ccccc1-c1cc(C(OCc2noc(-c3ccccc3)n2)c2cncn2C)ccc1C#N (stereo not drawn) [Example 171, 2′-methyl-5-((1-methyl-1H-imidazol-5-yl)((5-phenyl-1,2,4-oxadiazol-3-yl)methoxy)methyl)(1,1′-biphenyl)-2-carbonitrile hydrochloride] |
| 100 | N#Cc1ccc(COC(c2ccc(C#N)c(-c3cccc4ccccc34)c2)c2cnc[nH]2)cc1 (stereo not drawn) [Example 46, 4-(((4-cyanobenzyl)oxy)(1H-imidazol-5-yl)methyl)-2-(1-naphthyl)benzonitrile hydrochloride] |
| 94 | Cc1ccccc1-c1cc(C(OCc2ccccc2Cl)c2cncn2C)ccc1C#N (stereo not drawn) [Example 132, 5-(((2-chlorobenzyl)oxy)(1-methyl-1H-imidazol-5-yl)methyl)-2′-methyl(1,1′-biphenyl)-2-carbonitrile hydrochloride] |
| 100 | Cc1ccccc1-c1cc(N(Cc2ccccc2)Cc2cnc[nH]2)ccc1C#N [Example 270, 5-(benzyl(1H-imidazol-5-ylmethyl)amino)-2′-methyl(1,1′-biphenyl)-2-carbonitrile] |
| 100 | Cn1cncc1CN(Cc1cccc(Cl)c1)c1ccc(C#N)c(-c2cccc3ccccc23)c1 [Example 264, 4-((3-chlorobenzyl)((1-methyl-1H-imidazol-5-yl)methyl)amino)-2-(1-naphthyl)benzonitrile] |
| 99 | Cc1cccc(-c2cc(C(OCc3ccc(C#N)cc3)c3cncn3C)ccc2C#N)c1C (stereo not drawn) [Example 278, 5-(((4-cyanobenzyl)oxy)(1-methyl-1H-imidazol-5-yl)methyl)-2′,3′-dimethyl(1,1′-biphenyl)-2-carbonitrile hydrochloride] |
| 90 | Cc1ccccc1-c1cc(C(OCc2ccc3ccccc3c2)c2cncn2C)ccc1C#N (stereo not drawn) [Example 183, 2′-methyl-5-((1-methyl-1H-imidazol-5-yl)(2-naphthylmethoxy)methyl)(1,1′-biphenyl)-2-carbonitrile hydrochloride] |
| 100 | CCOC(=O)N1CCC(NC(c2ccc(C#N)c(-c3cccc4ccccc34)c2)c2cncn2C)CC1 (stereo not drawn) [Example 50, ethyl 4-(((4-cyano-3-(1-naphthyl)phenyl)(1-methyl-1H-imidazol-5-yl)methyl)amino)-1-piperidinecarboxylate dihydrochloride] |
| 53 | Cn1cncc1C(OCc1ccccc1)c1ccc(C#N)c(-c2ccc3ccccc3c2)c1 (stereo not drawn) [Example 92, 4-((benzyloxy)(1-methyl-1H-imidazol-5-yl)methyl)-2-(2-naphthyl)benzonitrile hydrochloride] |
| 100 | CC(=O)Nc1ccc(CNC(c2ccc(C#N)c(-c3cccc4ccccc34)c2)c2cncn2C)cc1 (stereo not drawn) [Example 53, N-(4-((((4-cyano-3-(1-naphthyl)phenyl)(1-methyl-1H-imidazol-5-yl)methyl)amino)methyl)phenyl)acetamide dihydrochloride] |
| 97 | Cc1ccccc1-c1cc(C(OCc2ccc(-c3ccccc3C#N)cc2)c2cncn2C)ccc1C#N (stereo not drawn) [Example 145, 5-(((2′-cyano(1,1′-biphenyl)-4-yl)methoxy)(1-methyl-1H-imidazol-5-yl)methyl)-2′-methyl(1,1′-biphenyl)-2-carbonitrile hydrochloride] |
| 100 | C=CCN(Cc1cncn1C)c1ccc(C#N)c(-c2cccc3ccccc23)c1 [Example 228, 4-(allyl( (1-methyl-1H-imidazol-5-yl)methyl)amino)-2-(1-naphthyl)benzonitrile] |
| 100 | Cn1cncc1CN(Cc1ccc(C#N)cc1)c1ccc(C#N)c(-c2cccc3ccccc23)c1 [Example 231, 4-((4-cyanobenzyl)((1-methyl-1H-imidazol-5-yl)methyl)amino)-2-(1-naphthyl)benzonitrile] |
| 100 | Cc1ccccc1-c1cc(C(NCc2ccc(C#N)cc2)c2cncn2C)ccc1C#N (stereo not drawn) [Example 25, 5-(((4-cyanobenzyl)amino)(1-methyl-1H-imidazol-5-yl)methyl)-2′-methyl(1,1′-biphenyl)-2-carbonitrile] |
| 93 | Cc1ccccc1-c1cc(CN(Cc2ccccc2)Cc2cncn2C)ccc1C#N [Example 32, 5-((benzyl((1-methyl-1H-imidazol-5-yl)methyl)amino)methyl)-2′-methyl(1,1′-biphenyl)-2-carbonitrile dihydrochloride] |

| Structure (SMILES) | inhibition at 1 µM [%] |
| --- | --- |
| Cn1cncc1C(c1ccc(C#N)c(-c2cccc3ccccc23)c1)S(=O)(=O)Cc1ccc(C#N)cc1 (stereo not drawn) [Example 71, 4-(((4-cyanobenzyl)sulfonyl)(1-methyl-1H-imidazol-5-yl)methyl)-2-(1-naphthyl)benzonitrile hydrochloride] | 100 |
| Cn1cncc1C(OCc1ccc(C#N)cc1)c1ccc(C#N)c(I)c1 (stereo not drawn) [Example 60, 4-(((4-cyanobenzyl)oxy)(1-methyl-1H-imidazol-5-yl)methyl)-2-iodobenzonitrile hydrochloride] | 96 |
| Cc1ccccc1-c1cc(C(Oc2ccccc2)c2cncn2C)ccc1C#N (stereo not drawn) [Example 4, 2′-methyl-5-((1-methyl-1H-imidazol-5-yl)(phenoxy)methyl)(1,1′-biphenyl)-2-carbonitrile hydrochloride] | 88 |

same assay, conditions: compound at 10^−6 M; bovine FTase, 37° C., 30 minutes; hydrochloride

| % Inhibition at 10^−6M [%] | Structure (SMILES) |
| --- | --- |
| 95 | Cc1cc(C)cc(COC(c2ccc(C#N)c(-c3ccccc3C)c2)c2cncn2C)c1.Cl (stereo not drawn) [Example 158, 5-(((3,5-dimethylbenzyl)oxy)(1-methyl-1H-imidazol-5-yl)methyl)-2′-methyl(1,1′-biphenyl)-2-carbonitrile hydrochloride] |
